Assay results from PubChem BioAssay (NCI).
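Step 1: Grow cells in 96-well plates. Step 2: Expose to compound for 48 hours at 5 concentrations. Step 3: Interpolate endpoints linearly; if unreached, use highest concentration. At the TGI there is no net growth.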

Legend:
Assay in all cases: DTP human tumour cell line panel, 48 h
786-0 renal = test system: 786-0 renal
A498 renal = test system: A498 renal
A549 NSCLC = test system: A549 NSCLC
ACHN renal = test system: ACHN renal
BT-549 breast = test system: BT-549 breast
CAKI-1 renal = test system: CAKI-1 renal
COLO 205 colon = test system: COLO 205 colon
DU-145 prostate = test system: DU-145 prostate
HCC-2998 colon = test system: HCC-2998 colon
HCT-116 colon = test system: HCT-116 colon
HCT-15 colon = test system: HCT-15 colon
HL-60(TB) leukemia = test system: HL-60(TB) leukemia
HOP-62 NSCLC = test system: HOP-62 NSCLC
HOP-92 NSCLC = test system: HOP-92 NSCLC
HS 578T breast = test system: HS 578T breast
HT29 colon = test system: HT29 colon
IGROV1 ovarian = test system: IGROV1 ovarian
KM12 colon = test system: KM12 colon
LOX IMVI melanoma = test system: LOX IMVI melanoma
M14 melanoma = test system: M14 melanoma
MALME-3M melanoma = test system: MALME-3M melanoma
MCF7 breast = test system: MCF7 breast
MDA-MB-231 breast = test system: MDA-MB-231 breast
MDA-MB-435 = test system: MDA-MB-435
MDA-N = test system: MDA-N
NCI-H226 lung = test system: NCI-H226 lung
NCI-H23 lung = test system: NCI-H23 lung
NCI-H460 lung = test system: NCI-H460 lung
NCI-H522 lung = test system: NCI-H522 lung
NCI/ADR-RES ovarian = test system: NCI/ADR-RES ovarian
OVCAR-3 ovarian = test system: OVCAR-3 ovarian
OVCAR-4 ovarian = test system: OVCAR-4 ovarian
OVCAR-8 ovarian = test system: OVCAR-8 ovarian
PC-3 prostate = test system: PC-3 prostate
RPMI-8226 leukemia = test system: RPMI-8226 leukemia
RXF 393 renal = test system: RXF 393 renal
SF-268 CNS = test system: SF-268 CNS
SF-295 CNS = test system: SF-295 CNS
SF-539 CNS = test system: SF-539 CNS
SK-MEL-2 melanoma = test system: SK-MEL-2 melanoma
SK-MEL-28 melanoma = test system: SK-MEL-28 melanoma
SK-MEL-5 melanoma = test system: SK-MEL-5 melanoma
SK-OV-3 ovarian = test system: SK-OV-3 ovarian
SN12C renal = test system: SN12C renal
SNB-19 CNS = test system: SNB-19 CNS
SNB-75 CNS = test system: SNB-75 CNS
SR leukemia = test system: SR leukemia
SW-620 colon = test system: SW-620 colon
T-47D breast = test system: T-47D breast
TK-10 renal = test system: TK-10 renal
U251 CNS = test system: U251 CNS
UACC-257 melanoma = test system: UACC-257 melanoma
UACC-62 melanoma = test system: UACC-62 melanoma
UO-31 renal = test system: UO-31 renal

Measured: TGI

O=C(CC(C(=O)c1cccs1)c1ccc2c(c1)OCO2)c1ccccc1 (centres undefined)
> 100 µM: all assays above
